One may read the IC50 as the point on the concentration scale where inhibition reaches its midpoint.

Chain of Ba/F3 cells bearing a KRAS G12C mutation (P01116 whole entry G12C): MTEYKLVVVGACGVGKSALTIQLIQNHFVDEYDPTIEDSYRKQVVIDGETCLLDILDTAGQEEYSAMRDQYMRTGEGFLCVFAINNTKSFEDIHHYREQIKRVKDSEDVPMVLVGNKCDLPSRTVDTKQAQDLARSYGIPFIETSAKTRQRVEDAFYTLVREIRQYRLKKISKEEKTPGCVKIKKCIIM

In the first data set the target is T1, KRAS G12C::SOS1 protein-protein interaction (Homo sapiens, UniProt P01116, C118S/C51S/C80L/G12C).
T1 construct: His6 (N); host or cells: E. coli
T1 sequence (P01116 1-169 isoform P01116-2 G12C/C51S/C80L/C118S): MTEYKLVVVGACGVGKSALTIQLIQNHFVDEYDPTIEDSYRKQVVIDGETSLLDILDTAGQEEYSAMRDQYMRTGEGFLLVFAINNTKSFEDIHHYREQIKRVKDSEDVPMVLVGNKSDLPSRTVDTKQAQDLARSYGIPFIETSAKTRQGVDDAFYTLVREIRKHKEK
Description: KRAS::SOS1 AlphaScreen binding assay. The note with it: KRAS G12C::SOS1 AlphaScreen. From the text: KRAS::SOS1 AlphaScreen Binding Assay
Reagents: • GST-tagged SOS1 (564_1049_GST_TEV_ECO) produced in-house • GST-TEV-SOS1 (564-1049) is purchased from Viva Biotech Ltd. • The expression construct of KRAS G12C (amino acids 1-169 of reference sequence P01116-2 (uniprot), with additional mutations: C51S, C80L, and C118S) containing a C-terminal avi-tag was obtained by gene synthesis (GeneArt, Thermo Fisher) in donor vector (pDONR-221) and transferred by recombinant cloning into pDEST17 vector bearing an N-terminal His6-tag. The protein was expressed in E. coli and the purified protein was biotinylated with the E. coli biotin ligase (BirA) before usage. • GDP (Sigma Cat No G7127) • AlphaLISA Glutathione Acceptor Beads (PerkinElmer, Cat No AL109) • AlphaScreen Streptavidin Donor Beads (PerkinElmer Cat No 6760002) • Assay plates: Proxiplate-384 PLUS, white (PerkinElmer, Cat No 6008289)
Assay Buffer: • 1×PBS • 0.1% BSA • 0.05% Tween 20
7.5 nM (final assay concentration) KRAS G12C, 10 μM (final assay concentration) GDP and 5 nM (final assay concentration) GST-SOS1 are mixed in assay buffer prior to use and kept at room temperature.
AlphaLISA Glutathione Acceptor Beads and AlphaScreen Streptavidin Donor Beads are mixed in assay buffer at a concentration of 10 μg/mL (final assay concentration) each prior to use and kept at room temperature.
Compounds are diluted to a final start concentration of 100 μM and are tested in duplicate. Assay-ready plates (ARPs) are generated using an Access Labcyte Workstation with a Labcyte Echo 550 or 555 accoustic dispenser. For compound a start concentration of 100 μM, 150 nL of compound solution is transferred per well in 11 concentrations in duplicate with serial 1:5 dilutions.
The assay is run using a fully automated robotic system in a darkened room below 100 Lux. 10 μL of KRAS::SOS1 GDP mix is added into columns 1-24 to the 150 nL of compound solution (final dilution in the assay 1:100, final DMSO concentration 1%).
After 30 minutes incubation time 5 μL of bead mix is added into columns 1-23. Plates are kept at room temperature in a darkened incubator. After further 60 minutes incubation, the signal is measured using a PerkinElmer Envision HTS Multilabel Reader using the AlphaScreen specifications from PerkinElmer. Each plate contains the following controls: • diluted DMSO+KRAS::SOS1 GDP mix+bead mix • diluted DMSO+KRAS::SOS1 GDP mix
IC50 values are calculated and analyzed using a 4 parametric logistic model.
Tables of example compounds disclosed herein contain IC50 values determined using the above assay.
In turn, `C=CC(=O)N1CCN(c2cc(-c3cc(C4(C)CCCc5sc(N)c(C#N)c54)on3)nc(O[C@@H](C)[C@@H]3CCCN3C)n2)CC1` (stereo partly shown) [Ib-2] registered an IC50 of 2 nM.

Molecule `C=CC(=O)N1[C@H](C)CN(c2cc(O[C@@H](C)[C@@H]3CCCN3C)nc(-c3cc([C@@]4(C)CCCc5sc(N)c(C#N)c54)on3)n2)C[C@@H]1C` [Ib-3] came in with an IC50 of 2 nM.

The molecule `C=CC(=O)N1CCC(Oc2cc(O[C@@H](C)[C@@H]3CCCN3C)nc(-c3cc([C@@]4(C)CCCc5sc(N)c(C#N)c54)on3)n2)CC1` [Ib-7] returned an IC50 of 1.5 nM.

The target of the next data set is Ba/F3 cells bearing a KRAS G12C mutation (Homo sapiens, UniProt P01116, G12C, cells depend on it). Description: Ba/F3 cell model proliferation assay (AlamarBlue, 72 h). The note with it: Ba/F3 KRAS G12C cells, 72 h, 10% FCS, uncorrected; read-out: IC50 Ba/F3 KRASG12C. The class given is cell-based. The method, then:
Ba/F3 Cell Model Generation and Proliferation Assay
Plasmids containing KRASG12 mutants were obtained from GeneScript. To generate KRASG12-dependent Ba/F3 models, Ba/F3 cells were transduced with retroviruses containing vectors that harbor KRASG12 isoforms. Platinum-E cells (Cell Biolabs) were used for retrovirus packaging. Retrovirus was added to Ba/F3 cells. To ensure infection, 4 μg/mL polybrene was added and cells were spinfected. […] Cells with an infection efficiency of 10% to 20% were further cultivated and puromycin selection with 1 μg/mL was initiated. As a control, parental Ba/F3 cells were used to show selection status. Selection was considered successful when parental Ba/F3 cells cultures died. To evaluate the transforming potential of KRASG12 mutations, the growth medium was no longer supplemented with IL-3. Ba/F3 cells harboring the empty vector were used as a control. Approximately ten days before conducting the experiments, puromycin was left out.
All treatments were performed in technical duplicates. The assay is run using a fully automated robotic system. Treated cells were incubated for 72 h at 37° C. with 5% CO2. AlamarBlue™ (ThermoFisher), a viability stain, was added and fluorescence measured in the PerkinElmer Envision HTS Multilabel Reader.
(Resazurin is reduced to fluorescent resorufin, in cell work by metabolically active cells.)
In the case of `C=CC(=O)N1[C@H](C)CN(c2cc(O[C@@H](C)[C@@H]3CCCN3C)nc(-c3cc([C@@]4(C)CCCc5sc(N)c(C#N)c54)on3)n2)C[C@@H]1C` [Ib-3], the GI50 worked out at 3.9 nM.

Turning to `C=CC(=O)N1CCC(Oc2cc(O[C@@H](C)[C@@H]3CCCN3C)nc(-c3cc([C@@]4(C)CCCc5sc(N)c(C#N)c54)on3)n2)CC1` [Ib-7], the GI50 came out at 0.2 nM.

Staying with this data set, now noted: corrected by plasma protein binding in 10% FCS (fraction unbound); read-out: IC50 Ba/F3 KRASG12C (corrected).
Regarding `C=CC(=O)N1[C@H](C)CN(c2cc(O[C@@H](C)[C@@H]3CCCN3C)nc(-c3cc([C@@]4(C)CCCc5sc(N)c(C#N)c54)on3)n2)C[C@@H]1C` [Ib-3], the GI50 stood at 0.3 nM.

As to `C=CC(=O)N1CCC(Oc2cc(O[C@@H](C)[C@@H]3CCCN3C)nc(-c3cc([C@@]4(C)CCCc5sc(N)c(C#N)c54)on3)n2)CC1` [Ib-7], the GI50 was found to be 0.03 nM.

System in the next data set: not listed separately
Description: Plasma protein binding (equilibrium dialysis), mouse plasma. The class given is in vitro ADME. To be noted: read-out: PPB mouse fu. As to the method: (§1) Plasma Protein Binding (PPB)
(§2) Binding of test compound to plasma was determined using equilibrium dialysis (ED) and quantitative mass spectrometry interfaced with liquid chromatography (LC-MS). In brief, ED was performed with dialysis devices consisting of two chambers separated by a semipermeable membrane with a molecular weight cut-off of 5-10 kg/mol. One chamber was filled with commercially sourced plasma (mouse and human plasma, respectively) or serum (10% FCS in PBS) containing 1-10 μmol/L test compound and the other chamber was filled with phosphate-buffer saline (PBS) with or without dextran. The dialysis chamber was incubated for 3-5 hours at 37° C. After incubation, protein was precipitated from aliquots of each chamber and the concentration of test compound in the supernatant of the plasma-containing compartment (cplasma) and of the buffer-containing compartment (Cbuffer) was determined by LC-MS. The fraction of unbound test compound (not bound to plasma) (fu) was calculated according to the following equation: […]
(In equilibrium dialysis only unbound substance equilibrates across the membrane.)
As for `C=CC(=O)N1[C@H](C)CN(c2cc(O[C@@H](C)[C@@H]3CCCN3C)nc(-c3cc([C@@]4(C)CCCc5sc(N)c(C#N)c54)on3)n2)C[C@@H]1C` [Ib-3], the fraction unbound is 0.004.

For `C=CC(=O)N1CCC(Oc2cc(O[C@@H](C)[C@@H]3CCCN3C)nc(-c3cc([C@@]4(C)CCCc5sc(N)c(C#N)c54)on3)n2)CC1` [Ib-7], the fraction unbound stood at 0.007.

System in a further data set: not listed separately
Description: Plasma protein binding (equilibrium dialysis), human plasma. It is filed as in vitro ADME. The note with it: read-out: PPB human fu. The method, then: as §1, §2
Take `C=CC(=O)N1[C@H](C)CN(c2cc(O[C@@H](C)[C@@H]3CCCN3C)nc(-c3cc([C@@]4(C)CCCc5sc(N)c(C#N)c54)on3)n2)C[C@@H]1C` [Ib-3]: the fraction unbound came out at 0.018.

As to `C=CC(=O)N1CCC(Oc2cc(O[C@@H](C)[C@@H]3CCCN3C)nc(-c3cc([C@@]4(C)CCCc5sc(N)c(C#N)c54)on3)n2)CC1` [Ib-7], the fraction unbound turned out to be 0.018.

System in the next data set: not listed separately
Description: Plasma protein binding (equilibrium dialysis), serum 10% FCS in PBS. It is filed as in vitro ADME. To be noted: bovine, 10% FCS in PBS (serum), read-out: PPB 10% FCS fu. The method, then:
as §1, §2
With `C=CC(=O)N1[C@H](C)CN(c2cc(O[C@@H](C)[C@@H]3CCCN3C)nc(-c3cc([C@@]4(C)CCCc5sc(N)c(C#N)c54)on3)n2)C[C@@H]1C` [Ib-3], the fraction unbound came to 0.078.

Take `C=CC(=O)N1CCC(Oc2cc(O[C@@H](C)[C@@H]3CCCN3C)nc(-c3cc([C@@]4(C)CCCc5sc(N)c(C#N)c54)on3)n2)CC1` [Ib-7]: the fraction unbound was 0.127.

The test system of the next data set is ERK phosphorylation in NCI-H358_Cas9_SOS2. Briefly: ERK phosphorylation assay 2 (AlphaLISA SureFire Ultra p-ERK1/2), SOS2 knock-out. The class given is cell-based. The note with it: Homo sapiens, NCI-H358; assay 2 (marked with *); read-out: IC50 H358 pERK. The source says: ERK Phosphorylation Assay
Materials Used for the Assay;
For orientation: Bead proximity is the source of the signal in Alpha formats.
Consider `C=CC(=O)N1CCN(c2cc(-c3cc(C4(C)CCCc5sc(N)c(C#N)c54)on3)nc(O[C@@H](C)[C@@H]3CCCN3C)n2)CC1` (stereo partly shown) [Ib-2], for which the IC50 was 3.1 nM.

With `C=CC(=O)N1[C@H](C)CN(c2cc(O[C@@H](C)[C@@H]3CCCN3C)nc(-c3cc([C@@]4(C)CCCc5sc(N)c(C#N)c54)on3)n2)C[C@@H]1C` [Ib-3], the IC50 came out at 4.1 nM.

Regarding `C=CC(=O)N1CCC(Oc2cc(O[C@@H](C)[C@@H]3CCCN3C)nc(-c3cc([C@@]4(C)CCCc5sc(N)c(C#N)c54)on3)n2)CC1` [Ib-7], the IC50 was found to be 0.6 nM.

Source of the values: patent US11945812B2, “Annulated 2-amino-3-cyano thiophenes and derivatives for the treatment of cancer” (Boehringer Ingelheim International GmbH, priority 2020, dated 2024).
